Read-outs that look alike come from different tables or passages of the source.
What was measured:
[1] = system: NO production in lipopolysaccharide-induced BV-2 microglia; test: Inhibition of NO production in lipopolysaccharide-induced BV-2 microglia; format: cell-based; settings: Mus musculus
5×FAD transgenic mice [2] = test: Y maze test (working memory ability); format: in vivo; settings: 5×FAD mice, 4 weeks
Method: (§1) The AD model mice used are 5×FAD transgenic mice, purchased from the Jackson Laboratory (JAX), USA. The transgenic mice have Swedish (K670N/M671L), Florida (I716V) and London (V717I) mutations in amyloid precursor protein (APP), and M146L and L286V mutations in PSEN1.
(§2) All mice were fed and watered ad libitum at 22±2° C. with a humidity of 50±10% and a 12 h light/dark cycle until 6 months old, then the experiment was started. All operations were in accordance with the guidelines of the National Health Administration and the guidelines for the use of laboratory animals. […]
The Y maze test is a commonly used test method to assess working memory ability. […] The mice were placed in the center of the Y maze to explore the 3 arms freely for 5 min, all movements were recorded by a camera, and the spontaneous alternation ratio was calculated according to the situation of entering onto each arm.

5×FAD transgenic mice [3] = test: Elevated plus maze test (anxiety behavior); format: in vivo; settings: 5×FAD mice, 4 weeks
Method: as §1, §2
The elevated plus maze is a recognized behavior test used for anxiety behavior assessment. […] The times of entries onto the open arm and the total times were recorded, and the anxiety behavior of the animal was evaluated by the proportion of entries onto the open arm.

5×FAD transgenic mice [4] = test: Barnes maze test (learning and memory ability); format: in vivo; settings: 5×FAD mice, 4 weeks
Method: as §1, §2
The Barnes maze test is widely used to assess spatial learning and memory abilities. […] When the cylinder was removed, light was given to allow the mice to explore the platform and find the escape box within 180 s, the time when the mice entered the escape box was recorded by a camera-based EthoVision system (Noldus) and recorded as the escape latency. […] The successful escape latency of mice was recorded and analyzed.

BV-2 microglia [5] = settings: mouse
5×FAD transgenic mice [6] = test: Marble burying test (anxiety behavior); format: in vivo; settings: 5×FAD mice, high dose 30 mg/kg/day intraperitoneal, 4 weeks
Method: as §1, §2
Each mouse was placed in a cage (28×18×12 cm) containing 20 clean marbles (1.5 cm in diameter), evenly distributed on the surface of clean wood chips (4 cm in depth). After 30 min, each mouse was removed from the cage and the number of marbles buried at least two-thirds was counted.

BV-2 microglia [7] = test: Cell viability corresponding to the NO production test
[8] = read-out: EC50 (inhibitory effect on the NO production)
[9] = high dose 30 mg/kg/day intraperitoneal
[10] = low dose 15 mg/kg/day intraperitoneal
[11] = read-out: EC50 (inhibition of NO production)

EC50 [1, 8]	melting point	Structure (SMILES)	cell viability (BV-2 microglia [5])	also measured
2.07 ± 0.56 µM	–	C#CCO/N=C(\Cn1ccnc1)c1ccc2c(c1)OCO2 [I-1]	92.5%	spontaneous alternation ratio (5×FAD transgenic mice [2]; [9]): significantly increased; spontaneous alternation ratio (5×FAD transgenic mice [2]; [10]): significantly increased; proportion of entries onto the open arm (5×FAD transgenic mice [3]; [9]): significantly improved; proportion of entries onto the open arm (5×FAD transgenic mice [3]; [10]): significantly improved; successful escape latency vs 5×FAD-Vehicle group (5×FAD transgenic mice [4]; high dose 30 mg/kg/day intraperitoneal, day 3 and day 4): significantly reduced; successful escape latency vs 5×FAD-Vehicle group (5×FAD transgenic mice [4]; low dose 15 mg/kg/day intraperitoneal, day 4): significantly reduced; number of marbles buried (5×FAD transgenic mice [6]): significantly reduced
3.42 ± 0.64 µM	–	C=CCO/N=C(\Cn1ccnc1)c1ccc2c(c1)OCO2 [I-3]	97.8%	–
2.76 ± 0.34 µM	154.3 to 154.9 °C	CC(C)=CCO/N=C(\Cn1ccnc1)c1ccc2c(c1)OCO2 [I-5]	93.3%	–
4.43 ± 0.43 µM	186.4 to 187.9 °C	c1ccc(CO/N=C(\Cn2ccnc2)c2ccc3c(c2)OCO3)cc1 [I-6]	97.8%	–
2.37 ± 0.17 µM	121.8 to 122.7 °C	FC(F)(F)c1ccc(CO/N=C(\Cn2ccnc2)c2ccc3c(c2)OCO3)cc1 [I-7]	92.8%	–
2.53 ± 0.47 µM	156.3 to 157.5 °C	FC(F)(F)c1ccccc1CO/N=C(\Cn1ccnc1)c1ccc2c(c1)OCO2 [I-8]	95.4%	–
4.24 ± 1.02 µM	–	N#Cc1ccc(CO/N=C(\Cn2ccnc2)c2ccc3c(c2)OCO3)cc1 [I-9]	91.6%	–
> 20 µM	–	C(=C\c1ccccc1)/CO/N=C(\Cn1ccnc1)c1ccc2c(c1)OCO2 [I-10]	96.3%	EC50 [1, 11]: > 20 µM
–	–	Clc1ccc(CO/N=C(\Cn2ccnc2)c2ccc(Cl)cc2Cl)c(Cl)c1 [oxiconazole]	–	cell viability (BV-2 microglia [7]): 96.2%
9.56 ± 1.62 µM	–	O=c1c(O)c(-c2ccc(O)c(O)c2)oc2cc(O)cc(O)c12 [quercetin, reference compound]	–	EC50 [1, 11]: 9.56 µM; cell viability (BV-2 microglia [7]): 94.3%

— patent US11680062B2, “3,4-methylenedioxyphenylimidazolylethanonexime ether derivative, preparation method and use thereof, and drug for the treatment of Alzheimer's disease” (NORTHWEST A&F UNIVERSITY, priority 2021, dated 2023)
